Measurements from patent US7754699B2, “Antiviral nucleosides” (Roche Palo Alto LLC, priority 2005, dated 2010).
In brackets after ≈: the same amount, converted by molar mass. Like-named read-outs stand apart in the source and are kept apart here.

What was measured:
[1] = Experimentally determined distribution coefficient; type: physicochemical; settings: octanol/buffered aqueous solution, pH 7.4; read-out: log D (distribution coefficient)
From the text: The expression PO/W as used herein refers to the octanol/water partition coefficient. The expression clogP as used herein refers to the calculated PO/W. Computer programs which calculate PO/W are readily available to the pharmaceutical and medicinal chemist. The term distribution coefficient refers to the experimentally determined partition coefficient between octanol and a buffered aqueous solution. The partition coefficient and distribution coefficient are generally similar but the latter is a function of the pH of the aqueous solution whereas the PO/W is independent of pH.

[2] = Stability in simulated gastric fluid; type: physicochemical; settings: simulated gastric fluid pH 1.2, 37° C.; read-out: SGF T1/2 (converted)
Protocol: (§1) Particularly relevant are water solubility, partition coefficient and stability in gastric and intestinal fluids. […] The solubility in water of a orally administered prodrug should be greater than at least about 0.1 mg/mL for optimal formulation and the half-lives in simulated gastric fluid and simulated intestinal fluid should be 1-2 h and 2-4 h respectively to allow sufficient time to traverse the stomach and be absorbed in the intestine.

[3] = in vitro; type: in vitro ADME; settings: human, Caco-2, Caco-2 (2-7d) Papp
Protocol: To further evaluate potential behavior in human subjects, the transport through Caco-2 cells was evaluated for the putative prodrugs. Caco-2 cells are commonly used to evaluated the potential absorption/permeability of molecules (G. Gaviraghi et al. in Pharmacokinetic optimization in drug research. Biological, Pharmacokinetic and Computational Strategies. B. Testa et al. eds. Wiley Interscience VCH, Zurich 2001 pp 3-14).
Powders of Krebs-Henseleit buffer, calcium chloride dihydrate, and sodium bicarbonate were purchased from Sigma (St. Louis, Mo.). Caco-2 cells (Passage ˜100) were obtained from Roche Basel. DMEM/high medium, 4-(2-hydroxyethyl)-1-piperazineethane-sulfonic acid (HEPES), and bovine serum were obtained from JRH Bioscience (Lenexa, Kans.). MEM nonessential amino acids, L-glutamine, penicillin, and streptomycin were obtained from GIBCO Labs, Life Tech. LLC (Grand Island, N.Y.). Snapwell cell culture inserts ([…], 1.12 cm^2, 0.4 μm pore size) were obtained from Costar (Cambridge, Mass.).
Cells were grown in 75-cm^2 flasks and maintained at 37° C. in an atmosphere of 5% CO2 and 95% air. Culture media consisted of DMEM/high medium supplemented with 5% bovine serum, 25 mM HEPES, 1% MEM non-essential amino acids, 1% L-glutamine, 100 U/mL penicillin, and 100 μg/mL streptomycin. Cultures were passaged every week at a split ratio of 1-3. For the permeability studies, Caco-2 cells at passage number 110-120 were plated at a density of 400,000 cells/cm^2 on Transwell polycarbonate filters in Snapwell inserts and allowed to culture for 7 days prior to use.
Krebs-Henseleit bicarbonate buffer containing 10 mM glucose and 2.5 mM CaCl2 adjusted to pH 6.5 and 7.4 were prepared per packet instructions. Powder salts were quantitatively dissolved in about 90% of required volume with Millipore water. Calcium chloride dihydrate and sodium bicarbonate were added before pH adjustment with 1N HCl or 1N NaOH. Additional Millipore water was added to bring the solution to final volume. The solution was sterilized by filtration using membrane with a porosity of 0.22 microns and stored in the refrigerator ([…]) until use.
Differentiated cells were obtained from Cell Culture Core Facility and allowed to equilibrate at 37° C. in an atmosphere of 5% CO2 and 95% air. Snapwells inserts, containing caco-2 monolayers were rinsed in 37° C. equilibrated Krebs-Henseleit pH 7.4 buffer.
The cell insert was utilized as the diffusion chamber. The pH of the Krebs-Henseleit buffer in the apical and basolateral chambers was 6.5 and 7.4, respectively, and the initial concentration of substrate in apical side was 100 μM. […]
The Papp was calculated using the following formula: […]

[4] = Stability in simulated intestinal fluid; type: physicochemical; settings: simulated intestinal fluid pH 7.4, 37° C.; read-out: SIF T1/2 (converted)
Protocol: as §1

[5] = Solubility; type: physicochemical
Protocol: as §1

[6] = test system: HCV; settings: monotherapy; cited from earlier work
[7] = aqueous media, water, or buffer pH 6.5, read-out: Solubility
[8] = simulated gastric fluid (SGF), simulated gastric fluid, read-out: Solubility in SGF
[9] = simulated intestinal fluid (SIF), fassgf or other biorelevant, media is SIF, read-out: Solubility

logD [1] | half-life [2] | Papp A→B at 30 min, 100 μM [3] | half-life [4] | solubility [5, 7] | solubility [5, 8] | melting point | SMILES | solubility [5, 9] | reduces serum amino transferase levels to normal [6] | serum levels of HCV-RNA [6]
1.67 | 25.1 h | 3.93 ×10⁻⁶ cm/s | 866 h | 180 µg/mL (≈ 0.451 mM) | 13300 µg/mL (≈ 33.3 mM) | – | CC(C)C(=O)OC[C@H]1O[C@@H](n2ccc(N)nc2=O)[C@](C)(F)[C@@H]1OC(=O)C(C)C [I-2, Isobutyric acid (2R,3R,4R,5R)-5-(4-amino-2-oxo-2H-pyrimidin-1-yl)-4-fluoro-3-isobutyryloxy-4-methyl-tetrahydro-furan-2-ylmethyl ester] | – | – | –
– | > 10.4 h | 13.4 ×10⁻⁶ cm/s | > 11 h | 130 µg/mL | – | 192 to 194.4 °C | CCCOC(=O)OC[C@H]1O[C@@H](n2ccc(N)nc2=O)[C@](C)(F)[C@@H]1OC(=O)OCCC.Cl [I-5, Carbonic acid (2R,3R,4R,5R)-5-(4-amino-2-oxo-2H-pyrimidin-1-yl)-4-fluoro-4-methyl-2-propoxycarbonyloxymethyl-tetrahydro-furan-3-yl ester propyl ester; hydrochloride salt] | – | – | –
– | > 12 h | 0.4 ×10⁻⁶ cm/s | > 12 h | 76000 µg/mL (≈ 293 mM) | – | – | C[C@@]1(F)[C@H](O)[C@@H](CO)O[C@H]1n1ccc(N)nc1=O [I-6, 4-amino-1-((2R,3R,4R,5R)-3-fluoro-4-hydroxy-5-hydroxymethyl-3-methyl-tetrahydro-furan-2-yl)-1H-pyrimidin-2-one, reference compound] | – | – | –

The next lines start with the compound.

SMILES | logD [1] | half-life [2] | Papp A→B at 30 min, 100 μM [3] | half-life [4] | solubility [5, 7] | solubility [5, 8] | melting point | solubility [5, 9] | reduces serum amino transferase levels to normal [6] | serum levels of HCV-RNA [6]
CCC(=O)OC[C@H]1O[C@@H](n2ccc(N)nc2=O)[C@](C)(F)[C@@H]1OC(=O)CC [I-3, Propionic acid (2R,3R,4R,5R)-5-(4-amino-2-oxo-2H-pyrimidin-1-yl)-4-fluoro-4-methyl-3-propionyloxy-tetrahydro-furan-2-ylmethyl ester] | 0.9 | 9 h | – | 72 h | – | 13600 µg/mL (≈ 36.6 mM) | 185.2 to 186 °C | 3700 µg/mL (≈ 9.96 mM) | – | –
CC(C)COC(=O)OC[C@H]1O[C@@H](n2ccc(N)nc2=O)[C@](C)(F)[C@@H]1OC(=O)OCC(C)C [I-4, Carbonic acid (2R,3R,4R,5R)-5-(4-amino-2-oxo-2H-pyrimidin-1-yl)-4-fluoro-2-isobutoxycarbonyloxymethyl-4-methyl-tetrahydro-furan-3-yl ester isobutyl ester] | – | > 7 h | 6.4 ×10⁻⁶ cm/s | > 15 h | – | 160 µg/mL (≈ 0.348 mM) | 210 to 211.5 °C | 13 µg/mL (≈ 0.0283 mM) | – | –
NC(=O)c1ncn([C@@H]2O[C@H](CO)[C@@H](O)[C@H]2O)n1 [ribavirin, 1-((2R,3R,4S,5R)-3,4-Dihydroxy-5-hydroxymethyl-tetrahydro-furan-2-yl)-1H-[1,2,4]triazole-3-carboxylic acid amide] | – | – | – | – | – | – | – | – | 40 % of patients | does not lower
